From patent US20240368173A1, “TRICYCLIC GPR65 MODULATORS” (PATHIOS THERAPEUTICS LIMITED, priority 2021, published 2024)

Target: human recombinant GPR65 (Homo sapiens, UniProt Q8IYL9)
Test: Human GPR65 cAMP HTRF antagonist assay
Format: cell-based
Settings: not given
Outline: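 Antagonism measured as suppression of the cAMP rise when pH is dropped to 7.2 (control wells pH 7.9) in 1321N1 cells stably carrying human GPR65. Cells in KRH with 1 mM IBMX and 200 μM EDTA saw compound 30 min, then acid stimulation 30 min; HTRF cAMP detection, normalised, 4-parameter logistic IC50.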

human recombinant GPR65, sequence (Q8IYL9 whole entry): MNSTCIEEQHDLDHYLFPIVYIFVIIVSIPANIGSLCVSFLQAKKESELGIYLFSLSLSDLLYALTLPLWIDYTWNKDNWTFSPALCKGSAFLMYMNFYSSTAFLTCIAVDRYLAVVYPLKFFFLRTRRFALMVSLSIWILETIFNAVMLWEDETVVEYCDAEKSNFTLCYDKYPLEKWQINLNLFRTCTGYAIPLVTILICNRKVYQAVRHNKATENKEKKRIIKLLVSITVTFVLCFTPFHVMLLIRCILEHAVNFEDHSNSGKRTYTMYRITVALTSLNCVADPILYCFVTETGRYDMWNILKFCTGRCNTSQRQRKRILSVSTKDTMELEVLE

Row | Compound | IC50
1 | O=C(Nc1cc(Cl)c(-c2cnc3nonc3c2)cc1F)N1[C@H]2CC[C@@H]1c1ccnc(F)c1C2 [Compound 190, (5R,8S)-N-(4-([1,2,5]Oxadiazolo[3,4-b]pyridin-6-yl)-5-chloro-2-fluorophenyl)-1-fluoro-6,7,8,9-tetrahydro-5H-5,8-epiminocyclohepta[c]pyridine-10-carboxamide] | < 0.5 µM
2 | Cn1ncc2c(-c3cc(F)c(NC(=O)N4[C@H]5CC[C@@H]4c4n[nH]c(=O)cc4C5)cc3Cl)cccc21 [Compound 120, (6S,9R)-N-(5-Chloro-2-fluoro-4-(1-methyl-1H-indazol-4-yl)phenyl)-3-oxo-3,5,6,7,8,9-hexahydro-2H-6,9-epiminocyclohepta[c]pyridazine-10-carboxamide] | < 0.5 µM
3 | O=C(Nc1ccc(OC2CCC2)c(Cl)c1)N1[C@H]2CC[C@@H]1c1ccnc(F)c1C2 [Compound 69, (5R,8S)-N-(3-Chloro-4-cyclobutoxyphenyl)-1-fluoro-6,7,8,9-tetrahydro-5H-5,8-epiminocyclohepta[c]pyridine-10-carboxamide] | < 0.5 µM
4 | O=C(Nc1cc(Cl)c(C(F)(F)F)cc1F)N1[C@H]2CC[C@@H]1c1c[nH]c(=O)nc1C2 [Compound 24, (5R,8S)-N-(5-Chloro-2-fluoro-4-(trifluoromethyl)phenyl)-2-oxo-3,5,6,7,8,9-hexahydro-2H-5,8-epiminocyclohepta[d]pyrimidine-10-carboxamide] | < 0.5 µM
5 | O=C(Nc1cc(Cl)c(-c2cncc(C(F)F)c2)cc1F)N1[C@H]2CC[C@@H]1c1n[nH]c(=O)cc1C2 [Compound 333, (6S,9R)-N-(5-Chloro-4-(5-(difluoromethyl)pyridin-3-yl)-2-fluorophenyl)-3-oxo-3,5,6,7,8,9-hexahydro-2H-6,9-epiminocyclohepta[c]pyridazine-10-carboxamide] | < 0.5 µM
6 | O=C(Nc1cc(C(F)(F)F)c(-c2cnc3nonc3c2)cc1F)N1[C@H]2CC[C@@H]1c1n[nH]c(=O)cc1C2 [Compound 269, (6S,9R)-N-(4-([1,2,5]Oxadiazolo[3,4-b]pyridin-6-yl)-2-fluoro-5-(trifluoromethyl)phenyl)-3-oxo-3,5,6,7,8,9-hexahydro-2H-6,9-epiminocyclohepta[c]pyridazine-10-carboxamide] | < 0.5 µM
7 | COc1ccc(-c2cc(F)c(NC(=O)N3[C@H]4CC[C@@H]3c3n[nH]c(=O)cc3C4)cc2C(F)(F)F)cn1 [Compound 213, (6S,9R)-N-(2-Fluoro-4-(6-methoxypyridin-3-yl)-5-(trifluoromethyl)phenyl)-3-oxo-3,5,6,7,8,9-hexahydro-2H-6,9-epiminocyclohepta[c]pyridazine-10-carboxamide] | < 0.5 µM
8 | COc1ccc(-c2cc(F)c(NC(=O)N3[C@H]4CC[C@@H]3c3n[nH]c(=O)cc3C4)cc2Cl)nc1 [Compound 211, (6S,9R)-N-(5-Chloro-2-fluoro-4-(5-methoxypyridin-2-yl)phenyl)-3-oxo-3,5,6,7,8,9-hexahydro-2H-6,9-epiminocyclohepta[c]pyridazine-10-carboxamide] | < 0.5 µM
9 | O=C(Nc1cc(-c2ccccc2)on1)N1[C@H]2CC[C@@H]1c1n[nH]c(=O)cc1C2 [Compound 166, (6S,9R)-3-Oxo-N-(5-phenylisoxazol-3-yl)-3,5,6,7,8,9-hexahydro-2H-6,9-epiminocyclohepta[c]pyridazine-10-carboxamide] | < 0.5 µM
10 | O=C(Nc1cc(Cl)c(OCc2ccccc2)cc1F)N1[C@H]2CC[C@@H]1c1n[nH]c(=O)cc1C2 [Compound 237, (6S,9R)-N-(4-(Benzyloxy)-5-chloro-2-fluorophenyl)-3-oxo-3,5,6,7,8,9-hexahydro-2H-6,9-epiminocyclohepta[c]pyridazine-10-carboxamide] | < 0.5 µM
11 | C=C1c2ccnc(F)c2[C@H]2CC[C@@H]1N2C(=O)Nc1cc(Cl)c(Cl)cc1F [Compound 106, (6S,9R)-N-(4,5-Dichloro-2-fluorophenyl)-1-fluoro-5-methylene-6,7,8,9-tetrahydro-5H-6,9-epiminocyclohepta[c]pyridine-10-carboxamide] | 0.5 to 5 µM
12 | COc1ncc(-c2cc(F)c(NC(=O)N3[C@H]4CC[C@@H]3c3n[nH]c(=O)cc3C4)cc2Cl)cc1F [Compound 207, (6S,9R)-N-(5-Chloro-2-fluoro-4-(5-fluoro-6-methoxypyridin-3-yl)phenyl)-3-oxo-3,5,6,7,8,9-hexahydro-2H-6,9-epiminocyclohepta[c]pyridazine-10-carboxamide] | < 0.5 µM
13 | O=C(Nc1cc(Cl)c(-c2ccc3nonc3c2F)cc1F)N1[C@H]2CC[C@@H]1c1n[nH]c(=O)cc1C2 [Compound 327, (6S,9R)-N-(5-Chloro-2-fluoro-4-(4-fluorobenzo[c][1,2,5]oxadiazol-5-yl)phenyl)-3-oxo-3,5,6,7,8,9-hexahydro-2H-6,9-epiminocyclohepta[c]pyridazine-10-carboxamide] | < 0.5 µM
14 | O=C(Nc1cc(Cl)c(-c2ccc3nonc3c2)cc1F)N1[C@@H]2CC[C@H]1C(F)(F)c1c2ccnc1F [Compound 330, (5R,8S)-N-(4-(Benzo[c][1,2,5]-oxadiazol-5-yl)-5-chloro-2-fluorophenyl)-1,9,9-trifluoro-6,7,8,9-tetrahydro-5H-5,8-epiminocyclohepta[c]pyridine-10-carboxamide] | < 0.5 µM
15 | O=C(Nc1cc(Cl)c(-c2ccc(OC3CCOC3)nc2)cc1F)N1[C@H]2CC[C@@H]1c1n[nH]c(=O)cc1C2 (stereo partly drawn) [Compound 342, (6S,9R)-N-(5-Chloro-2-fluoro-4-(6-((tetrahydrofuran-3-yl)oxy)pyridin-3-yl)phenyl)-3-oxo-3,5,6,7,8,9-hexahydro-2H-6,9-epiminocyclohepta[c]pyridazine-10-carboxamide] | < 0.5 µM

Same assay, conditions: 1321N1-hrGPR65 cells, cAMP HTRF, assay pH 7.2; read-out: hGPR65 IC50 (Activity of selected compounds according to the invention)

Row | Compound | IC50
16 | CN(C)Cc1cccc(-c2cc(F)c(NC(=O)N3[C@H]4CC[C@@H]3c3n[nH]c(=O)cc3C4)cc2Cl)c1 [Compound 133, (6S,9R)-N-(2-Chloro-3′-((dimethylamino)methyl)-5-fluoro-[1,1′-biphenyl]-4-yl)-3-oxo-3,5,6,7,8,9-hexahydro-2H-6,9-epiminocyclohepta[c]pyridazine-10-carboxamide] | 0.5 to 5 µM
17 | CC(=O)Nc1ccc(-c2cc(F)c(NC(=O)N3[C@H]4CC[C@@H]3c3n[nH]c(=O)cc3C4)cc2Cl)cn1 [Compound 117, (6S,9R)-N-(4-(6-Acetamidopyridin-3-yl)-5-chloro-2-fluorophenyl)-3-oxo-3,5,6,7,8,9-hexahydro-2H-6,9-epiminocyclohepta[c]pyridazine-10-carboxamide] | 0.5 to 5 µM
18 | N#Cc1cnc(NC(=O)N2C3CCC2c2n[nH]c(=O)cc2C3)cc1Cl (racemic) [Compound 43, (±)-N-(4-Chloro-5-cyanopyridin-2-yl)-3-oxo-3,5,6,7,8,9-hexahydro-2H-6,9-epiminocyclohepta[c]pyridazine-10-carboxamide] | 0.5 to 5 µM
19 | Nc1ccc(-c2cc(F)c(NC(=O)N3[C@H]4CC[C@@H]3c3n[nH]c(=O)cc3C4)cc2Cl)cn1 [Compound 118, (6S,9R)-N-(4-(6-Aminopyridin-3-yl)-5-chloro-2-fluorophenyl)-3-oxo-3,5,6,7,8,9-hexahydro-2H-6,9-epiminocyclohepta[c]pyridazine-10-carboxamide] | 0.5 to 5 µM
20 | O=C(Nc1cc(Cl)c(Cl)cc1F)N1[C@H]2CC[C@@H]1c1ncccc1C2 [Compound 90, (6S,9R)-N-(4,5-Dichloro-2-fluorophenyl)-6,7,8,9-tetrahydro-5H-6,9-epiminocyclohepta[b]pyridine-10-carboxamide] | > 5 µM
21 | O=C(Nc1cc(Cl)c(Cl)cc1F)N1[C@@H]2CC[C@H]1[C@@H](F)c1ccnc(F)c12 (racemic) [Compound 284, ±(5-endo)-N-(4,5-dichloro-2-fluorophenyl)-1,5-difluoro-6,7,8,9-tetrahydro-5H-6,9-epiminocyclohepta[c]pyridine-10-carboxamide] | 0.5 to 5 µM
22 | CN(C(=O)N1C2CCC1c1ccc(=O)n(C)c1C2)c1cc(Cl)c(Cl)cc1F (racemic) [Compound 288, (±)—N-(4,5-Dichloro-2-fluorophenyl)-N,1-dimethyl-2-oxo-2,5,6,7,8,9-hexahydro-1H-5,8-epiminocyclohepta[b]pyridine-10-carboxamide] | > 5 µM
